The source of these data is patent US8580308B2, “Modafinil pharmaceutical compositions” (Cephalon, Inc., priority 2002, dated 2013).

A short description of series [1]: density of modafinil. It is filed as physicochemical. The text has this:
Although primarily described herein with respect to “cumulative total number of particles,” it is within the ability of one skilled in the art to also make blends based upon weight of the portions used from each of the discrete lots, as detailed above. In particular, the density of modafinil is about 0.50 grams per cubic centimeter (bulk density) and about 0.60 grams per cubic centimeter (tap density). Using the density information, the statistical information that is described herein, and assuming the particles of modafinil are spherical, accurate determinations of the appropriate weight of particles in each discrete lot can be made. Similar calculations can be made with respect to the surface area of the particles.

The conditions of series [2]: monkeys, single administration; cited from earlier work.
For series [3] the following is noted: humans; cited from earlier work.
The conditions of series [4]: mice, single administration; cited from earlier work.

Regarding `NC(=O)C[S+]([O-])C(c1ccccc1)c1ccccc1` (centres unmarked) [modafinil, 2-(benzhydrylsulfinyl)acetamide], in series [1], the bulk density result was “about 0.50 grams per cubic centimeter” and the tap density result is given as “about 0.60 grams per cubic centimeter”. For the same compound, in series [2], the nocturnal activity entry is “increased nocturnal activity”. Also, the “treatment of idiopathic hypersomnia and narcolepsy” value in series [3] is reported as “successfully tested”. Also, the locomotor activity entry in series [4] is reported as “increased locomotor activity”.
